Reference: ChEMBL document CHEMBL3621142, “Discovery and Evaluation of Clinical Candidate AZD3759, a Potent, Oral Active, Central Nervous System-Penetrant, Epidermal Growth Factor Receptor Tyrosine Kinase Inhibitor” (J Med Chem, 2015)
Calls of active or inactive are those of the source. No cut-off for these calls is given here.

Experiments:
[1] = (§1) Fraction unbound in Han Wistar rat blood at 5 uM by equilibrium dialysis method; assay type: ADME, tissue-based; conditions: Han Wistar
[2] = (§2) Fraction unbound in Han Wistar rat brain at 5 uM by equilibrium dialysis method; assay type: ADME, tissue-based; conditions: Han Wistar, brain
[3] = (§3) Oral bioavailability in Han Wistar rat at 2 mg/kg; assay type: ADME, organism-based; conditions: Han Wistar, in vivo
[4] = (§4) AUC (0 to 7 hrs) in Han Wistar rat brain at 2 mg/kg, po by LC-MS/MS analysis; assay type: ADME, organism-based; parameters: dose 2 mg/kg, time < 7 hr, route oral; conditions: Han Wistar, brain
[5] = (§5) AUC (0 to 7 hrs) in Han Wistar rat CSF at 2 mg/kg, po by LC-MS/MS analysis; assay type: ADME, organism-based, Cerebrospinal fluid; parameters: time < 7 hr, dose 2 mg/kg, route oral; conditions: Han Wistar, CSF
[6] = (§6) AUC (0 to 7 hrs) in Han Wistar rat blood at 2 mg/kg, po by LC-MS/MS analysis; assay type: ADME, organism-based; parameters: dose 2 mg/kg, time < 7 hr, route oral; conditions: Han Wistar, blood
[7] = Ratio of unbound AUC (0 to 7 hrs) in brain to blood of Han Wistar rat at 2 mg/kg, po by LC-MS/MS analysis; assay type: ADME, organism-based; conditions: for Kp uu: Han Wistar, brain and blood, read-out: K(p,uu,brain)
[8] = Ratio of unbound AUC (0 to 7 hrs) in CSF to blood of Han Wistar rat at 2 mg/kg, po by LC-MS/MS analysis; assay type: ADME, organism-based; conditions: for Kp uu: Han Wistar, CSF and blood
[9] = (§7) Elimination half life in Han Wistar rat at 1 mg/kg, iv; assay type: ADME, organism-based; conditions: Han Wistar, in vivo, read-out: beta t1/2 (converted)
[10] = Clearance in Han Wistar rat at 1 mg/kg, iv; assay type: ADME, organism-based; conditions: in vivo
[11] = (§8) Volume of distribution at steady state in Han Wistar rat at 1 mg/kg, iv; assay type: ADME, organism-based; conditions: Han Wistar, in vivo, read-out: Vdss
[12] = (§9) AUC(0 to 24 hrs) in Han Wistar rat at 2 mg/kg, po; assay type: ADME, organism-based; parameters: dose 2 mg/kg, time < 24 hr, route oral; conditions: Han Wistar, in vivo
[13] = Permeability from apical to basolateral side in MDCK2-MDR1 cells; assay type: ADME, cell-based, Canis lupus familiaris, MDCK-II; conditions: dog; for Papp A→B: MDCK-MDR1
[14] = system: BCRP; assay: Permeability from apical to basolateral side in BCRP transfected MDCK2 cells; assay type: ADME, cell-based, Canis lupus familiaris, MDCK-II; conditions: dog
[15] = Ratio of unbound AUC (0 to 24 hrs) in brain to blood of Han Wistar rat at 20 mg/kg, po by LC-MS/MS analysis; assay type: ADME, organism-based; conditions: brain and blood, read-out: K(p,uu,brain)
[16] = Ratio of unbound AUC (0 to 24 hrs) in CSF to blood of Han Wistar rat at 20 mg/kg, po by LC-MS/MS analysis; assay type: ADME, organism-based; conditions: CSF and blood
[17] = AUC (0 to 7 hrs) in Han Wistar rat brain at 20 mg/kg, po measured after 0.5 to 24 hrs by LC-MS/MS analysis; assay type: ADME, organism-based; parameters: time < 7 hr, dose 20 mg/kg, route oral
[18] = AUC (0 to 7 hrs) in Han Wistar rat CSF at 20 mg/kg, po measured after 0.5 to 24 hrs by LC-MS/MS analysis; assay type: ADME, organism-based, Cerebrospinal fluid; parameters: time < 7 hr, dose 20 mg/kg, route oral
[19] = AUC (0 to 7 hrs) in Han Wistar rat blood at 20 mg/kg, po measured after 0.5 to 24 hrs by LC-MS/MS analysis; assay type: ADME, organism-based; parameters: time < 7 hr, dose 20 mg/kg, route oral
[20] = system: MDR1 (P-gp); assay: Efflux ratio of permeability from basolateral to apical side over apical to basolateral side in MDCK2-MDR1 cells; assay type: ADME, cell-based, Canis lupus familiaris; conditions: dog, MDCK-MDR1
[21] = molecular target: Epidermal growth factor receptor (Homo sapiens, UniProt P00533, L858R); assay type: cell-based, H3255
Epidermal growth factor receptor (Homo sapiens, UniProt P00533, L858R), sequence (P00533 25-1210 L858R limits assumed): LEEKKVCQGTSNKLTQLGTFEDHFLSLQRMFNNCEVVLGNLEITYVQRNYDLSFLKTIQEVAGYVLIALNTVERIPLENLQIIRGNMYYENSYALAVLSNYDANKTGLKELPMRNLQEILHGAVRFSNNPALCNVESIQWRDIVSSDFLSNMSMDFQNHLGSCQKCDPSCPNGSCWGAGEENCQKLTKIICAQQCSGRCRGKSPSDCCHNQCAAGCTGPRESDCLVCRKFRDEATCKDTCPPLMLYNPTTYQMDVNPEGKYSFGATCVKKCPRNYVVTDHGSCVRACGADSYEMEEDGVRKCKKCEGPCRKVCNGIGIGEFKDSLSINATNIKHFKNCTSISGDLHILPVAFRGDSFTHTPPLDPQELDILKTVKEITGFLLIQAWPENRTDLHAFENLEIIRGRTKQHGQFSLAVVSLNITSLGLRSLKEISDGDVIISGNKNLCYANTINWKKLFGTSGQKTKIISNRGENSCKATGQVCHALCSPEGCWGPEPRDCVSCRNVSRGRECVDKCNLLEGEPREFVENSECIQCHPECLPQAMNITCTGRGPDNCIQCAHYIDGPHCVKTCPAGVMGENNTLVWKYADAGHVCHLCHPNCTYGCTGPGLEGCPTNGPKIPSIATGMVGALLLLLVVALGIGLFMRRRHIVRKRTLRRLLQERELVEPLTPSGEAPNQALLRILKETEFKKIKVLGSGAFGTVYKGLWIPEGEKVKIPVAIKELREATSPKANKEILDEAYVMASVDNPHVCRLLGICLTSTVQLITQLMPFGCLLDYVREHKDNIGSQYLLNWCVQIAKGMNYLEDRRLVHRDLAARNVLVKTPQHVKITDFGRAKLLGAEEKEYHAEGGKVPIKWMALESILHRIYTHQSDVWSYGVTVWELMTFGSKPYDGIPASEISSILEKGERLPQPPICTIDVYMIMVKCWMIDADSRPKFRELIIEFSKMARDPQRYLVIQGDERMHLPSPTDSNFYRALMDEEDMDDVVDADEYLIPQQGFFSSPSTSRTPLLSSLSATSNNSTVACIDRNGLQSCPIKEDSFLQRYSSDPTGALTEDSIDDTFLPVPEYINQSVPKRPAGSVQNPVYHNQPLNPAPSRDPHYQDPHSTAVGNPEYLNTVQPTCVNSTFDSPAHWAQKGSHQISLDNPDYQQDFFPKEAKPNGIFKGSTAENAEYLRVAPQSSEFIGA

[22] = system: Blood; assay: as §1; assay type: ADME, tissue-based; conditions: 5 µM
[23] = system: Brain; assay: as §2; assay type: ADME, tissue-based; conditions: 5 µM
[24] = system: Rattus norvegicus; assay: as §3; assay type: ADME, organism-based; conditions: in vivo
[25] = system: Brain; assay: as §4; assay type: ADME, organism-based; parameters: dose 2 mg/kg, time < 7 hr, route oral; conditions: in vivo, 7 h
[26] = system: Cerebrospinal fluid; assay: as §5; assay type: ADME, organism-based; parameters: time < 7 hr, dose 2 mg/kg, route oral; conditions: in vivo, 7 h
[27] = system: Blood; assay: as §6; assay type: ADME, organism-based; parameters: dose 2 mg/kg, time < 7 hr, route oral; conditions: in vivo, 7 h
[28] = system: Rattus norvegicus; assay: as §7; assay type: ADME, organism-based; conditions: in vivo
[29] = system: Rattus norvegicus; assay: as §8; assay type: ADME, organism-based; conditions: in vivo
[30] = system: Rattus norvegicus; assay: as §9; assay type: ADME, organism-based; parameters: dose 2 mg/kg, time < 24 hr, route oral; conditions: in vivo, 24 h
[31] = Elimination half life in Han Wistar rat at 2 mg/kg, po; assay type: ADME, organism-based; conditions: in vivo, read-out: beta t1/2 (converted)
[32] = molecular target: Cytochrome P450 2C9 (Homo sapiens, UniProt P11712); assay: Inhibition of human CYP2C9; assay type: ADME
Cytochrome P450 2C9, sequence (P11712 whole entry): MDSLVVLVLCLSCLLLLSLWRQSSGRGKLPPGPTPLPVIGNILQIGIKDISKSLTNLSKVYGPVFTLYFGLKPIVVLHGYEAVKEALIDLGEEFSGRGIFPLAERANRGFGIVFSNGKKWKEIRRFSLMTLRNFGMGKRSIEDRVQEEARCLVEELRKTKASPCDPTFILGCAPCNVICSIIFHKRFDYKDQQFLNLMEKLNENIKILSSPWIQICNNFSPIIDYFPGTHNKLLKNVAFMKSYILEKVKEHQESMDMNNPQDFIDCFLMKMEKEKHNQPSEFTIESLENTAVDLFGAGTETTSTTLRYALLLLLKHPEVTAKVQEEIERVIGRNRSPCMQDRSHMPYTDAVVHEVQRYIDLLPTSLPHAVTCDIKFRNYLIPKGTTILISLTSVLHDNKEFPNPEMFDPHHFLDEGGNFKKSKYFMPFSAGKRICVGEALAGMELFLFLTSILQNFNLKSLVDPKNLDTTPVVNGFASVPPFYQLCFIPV

[33] = molecular target: Cytochrome P450 2D6 (Homo sapiens, UniProt P10635); assay: Inhibition of human CYP2D6; assay type: ADME
Cytochrome P450 2D6, sequence (P10635 whole entry): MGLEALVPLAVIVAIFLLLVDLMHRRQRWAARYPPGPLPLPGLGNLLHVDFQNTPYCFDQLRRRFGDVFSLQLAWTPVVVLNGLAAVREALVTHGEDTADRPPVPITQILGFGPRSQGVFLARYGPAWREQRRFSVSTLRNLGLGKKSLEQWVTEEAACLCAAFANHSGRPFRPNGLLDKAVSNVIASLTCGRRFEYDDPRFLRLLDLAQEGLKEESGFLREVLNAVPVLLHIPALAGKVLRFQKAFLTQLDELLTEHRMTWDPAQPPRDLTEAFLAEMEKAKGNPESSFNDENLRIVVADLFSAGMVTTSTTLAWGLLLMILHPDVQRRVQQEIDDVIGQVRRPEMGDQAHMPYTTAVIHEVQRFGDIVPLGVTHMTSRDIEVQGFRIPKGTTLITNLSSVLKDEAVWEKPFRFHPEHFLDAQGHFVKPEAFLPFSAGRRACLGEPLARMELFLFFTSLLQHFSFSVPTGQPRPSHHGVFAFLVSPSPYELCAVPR

[34] = molecular target: Cytochrome P450 3A4 (Homo sapiens, UniProt P08684); assay: Inhibition of human CYP3A4; assay type: ADME
Cytochrome P450 3A4, sequence (P08684 whole entry): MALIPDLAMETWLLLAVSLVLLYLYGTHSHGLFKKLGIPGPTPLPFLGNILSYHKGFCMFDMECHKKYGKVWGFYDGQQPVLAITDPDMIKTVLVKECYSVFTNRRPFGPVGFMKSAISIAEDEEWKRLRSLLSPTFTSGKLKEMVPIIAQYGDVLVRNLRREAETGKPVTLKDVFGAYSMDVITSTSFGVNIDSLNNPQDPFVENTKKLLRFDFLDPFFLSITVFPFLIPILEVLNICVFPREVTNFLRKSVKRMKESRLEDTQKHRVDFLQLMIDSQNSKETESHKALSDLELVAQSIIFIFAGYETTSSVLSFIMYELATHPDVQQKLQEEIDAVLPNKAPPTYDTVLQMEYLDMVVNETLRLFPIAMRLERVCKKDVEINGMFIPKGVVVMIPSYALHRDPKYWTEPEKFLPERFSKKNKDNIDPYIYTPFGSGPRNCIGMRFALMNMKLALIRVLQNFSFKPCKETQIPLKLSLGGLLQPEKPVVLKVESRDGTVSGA

[35] = molecular target: Voltage-gated inwardly rectifying potassium channel KCNH2 (Homo sapiens, UniProt Q12809); assay: Inhibition of human ERG by patch clamp assay
Voltage-gated inwardly rectifying potassium channel KCNH2, sequence (Q12809 whole entry): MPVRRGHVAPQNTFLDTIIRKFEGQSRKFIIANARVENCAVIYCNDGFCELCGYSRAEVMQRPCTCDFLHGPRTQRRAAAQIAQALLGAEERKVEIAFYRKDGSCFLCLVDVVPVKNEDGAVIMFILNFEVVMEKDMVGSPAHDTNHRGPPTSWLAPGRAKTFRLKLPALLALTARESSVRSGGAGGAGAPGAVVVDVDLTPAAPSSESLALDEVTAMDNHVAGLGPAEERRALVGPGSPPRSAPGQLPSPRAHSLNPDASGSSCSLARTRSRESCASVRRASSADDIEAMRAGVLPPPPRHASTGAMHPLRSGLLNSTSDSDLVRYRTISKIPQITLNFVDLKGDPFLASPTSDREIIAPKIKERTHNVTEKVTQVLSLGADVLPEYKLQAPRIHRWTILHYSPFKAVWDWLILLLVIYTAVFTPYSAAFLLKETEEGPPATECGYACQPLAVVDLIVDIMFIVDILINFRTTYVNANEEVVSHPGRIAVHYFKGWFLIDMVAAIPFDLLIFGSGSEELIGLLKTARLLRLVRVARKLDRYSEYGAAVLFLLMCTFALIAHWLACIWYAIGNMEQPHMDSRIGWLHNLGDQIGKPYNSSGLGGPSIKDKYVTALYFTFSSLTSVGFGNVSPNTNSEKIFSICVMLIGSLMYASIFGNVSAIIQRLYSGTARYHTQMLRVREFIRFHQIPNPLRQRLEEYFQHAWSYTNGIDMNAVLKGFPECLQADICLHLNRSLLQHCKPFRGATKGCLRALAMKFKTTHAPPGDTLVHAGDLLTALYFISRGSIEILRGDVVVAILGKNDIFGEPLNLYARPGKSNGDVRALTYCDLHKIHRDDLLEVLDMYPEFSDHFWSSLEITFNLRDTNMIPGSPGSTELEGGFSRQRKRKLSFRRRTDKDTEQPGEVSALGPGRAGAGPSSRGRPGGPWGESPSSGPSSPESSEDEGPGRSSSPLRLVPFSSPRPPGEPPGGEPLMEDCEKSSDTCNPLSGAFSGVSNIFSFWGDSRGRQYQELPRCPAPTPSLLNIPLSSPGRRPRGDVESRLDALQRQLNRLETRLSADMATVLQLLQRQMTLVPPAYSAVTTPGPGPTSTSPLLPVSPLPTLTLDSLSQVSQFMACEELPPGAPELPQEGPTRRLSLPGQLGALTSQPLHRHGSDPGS

[36] = Clearance in Han Wistar rat at 2 mg/kg, po; assay type: ADME, organism-based; conditions: in vivo
[37] = system: Rattus norvegicus; assay: Volume of distribution at steady state in Han Wistar rat at 2 mg/kg, […]; assay type: ADME, organism-based; conditions: in vivo
[38] = molecular target: Epidermal growth factor receptor (Homo sapiens, UniProt P00533, EX19DEL); assay: Inhibition of EGFR exon19 deletion mutant phosphorylation in human PC9 cells; assay type: cell-based, PC-9
Epidermal growth factor receptor (Homo sapiens, UniProt P00533, EX19DEL), sequence (P00533 whole entry, looked up, stated change not applied): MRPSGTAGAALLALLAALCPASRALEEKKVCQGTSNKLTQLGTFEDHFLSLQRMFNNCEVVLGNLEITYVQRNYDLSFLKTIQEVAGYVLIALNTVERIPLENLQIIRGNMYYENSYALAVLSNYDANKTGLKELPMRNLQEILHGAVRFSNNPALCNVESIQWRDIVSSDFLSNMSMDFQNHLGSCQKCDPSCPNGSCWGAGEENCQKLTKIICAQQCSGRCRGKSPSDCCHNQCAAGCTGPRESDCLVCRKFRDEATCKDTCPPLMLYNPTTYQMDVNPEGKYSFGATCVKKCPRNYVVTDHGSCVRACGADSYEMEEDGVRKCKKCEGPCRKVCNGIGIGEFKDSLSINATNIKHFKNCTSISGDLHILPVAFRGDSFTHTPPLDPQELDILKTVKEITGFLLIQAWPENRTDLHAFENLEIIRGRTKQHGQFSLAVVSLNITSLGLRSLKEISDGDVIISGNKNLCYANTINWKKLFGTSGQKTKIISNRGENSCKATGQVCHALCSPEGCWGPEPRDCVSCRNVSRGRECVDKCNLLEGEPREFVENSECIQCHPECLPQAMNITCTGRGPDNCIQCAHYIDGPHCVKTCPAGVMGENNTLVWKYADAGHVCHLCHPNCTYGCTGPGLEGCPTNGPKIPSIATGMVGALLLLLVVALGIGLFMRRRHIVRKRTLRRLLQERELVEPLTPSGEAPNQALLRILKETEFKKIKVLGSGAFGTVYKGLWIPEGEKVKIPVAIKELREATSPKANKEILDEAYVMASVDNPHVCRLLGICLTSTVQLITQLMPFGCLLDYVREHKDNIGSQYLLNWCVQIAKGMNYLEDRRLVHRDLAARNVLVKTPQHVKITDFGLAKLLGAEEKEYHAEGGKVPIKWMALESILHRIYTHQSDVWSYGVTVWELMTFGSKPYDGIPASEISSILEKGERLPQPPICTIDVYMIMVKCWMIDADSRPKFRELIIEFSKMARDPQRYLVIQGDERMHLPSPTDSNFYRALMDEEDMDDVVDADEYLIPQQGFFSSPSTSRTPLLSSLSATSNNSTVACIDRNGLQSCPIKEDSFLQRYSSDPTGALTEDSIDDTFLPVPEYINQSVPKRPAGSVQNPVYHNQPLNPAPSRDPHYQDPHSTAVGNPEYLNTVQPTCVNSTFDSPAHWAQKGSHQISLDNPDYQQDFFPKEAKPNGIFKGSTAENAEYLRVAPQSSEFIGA

[39] = system: PC-9; assay: Antitumor activity against human PC9 cells expressing EGFR exon19 deletion mutant xenografted in mouse assessed as tumor regression at 15 mg/kg, qd measured after 4 weeks; assay type: functional, organism-based
[40] = system: Mus musculus; assay: Toxicity in PC9 cells expressing EGFR exon19 deletion mutant xenografted mouse assessed as loss of body weight at 15 mg/kg, qd; assay type: organism-based, PC-9; conditions: in vivo
[41] = system: PC-9; assay: Antitumor activity against human PC9 cells expressing EGFR exon19 deletion mutant xenografted in mouse at 15 mg/kg, qd measured after 4 weeks; assay type: functional, organism-based
[42] = system: BCRP; assay: in vitro; conditions: dog
Description: Efflux ratio of permeability from basolateral to apical side over apical to basolateral side in BCRP transfected MDCK2 cells

Row | SMILES | fraction unbound at 5 µM [1] | fraction unbound at 5 µM [2] | bioavailability [3] [%] | AUC(0-t) at 7 h [4] [µM·h] | AUC(0-t) at 7 h [5] [µM·h] | AUC(0-t) at 7 h [6] [µM·h] | Kp uu [7] | Kp uu [8] | Papp A→B [13] [×10⁻⁶ cm/s] | efflux ratio [20] | IC50 [21] [nM] | also measured
1 | COc1cc2ncnc(Nc3cccc(Cl)c3F)c2cc1OC(=O)N1CCN(C)C[C@@H]1C | 0.023 | 0.015 | 83 | 1.94 | 0.048 | 0.805 | 1.6 | 2.6 | 51 | – | – | half-life [9]: 2.4 h; clearance [10]: 29 mL/min/kg; Vd [11]: 2.7 L/kg; AUC(0-t) at 24 h [12]: 2.95 µM·h
2 | COc1cc2ncnc(Nc3ccc(F)c(Cl)c3)c2cc1OCCCN1CCOCC1 [GEFITINIB] | – | 0.0039 | – | – | – | – | – | – | 8.3 | – | – | Papp A→B [14]: 4.2 ×10⁻⁶ cm/s; Kp uu [15]: 0.021; Kp uu [16]: 0.088; AUC(0-t) at 7 h [17]: 5.65 µM·h; AUC(0-t) at 7 h [18]: 0.093 µM·h; AUC(0-t) at 7 h [19]: 31.9 µM·h
3 | COc1cc2ncnc(Nc3cccc(Cl)c3F)c2cc1OC(=O)N1CCN(C)[C@@H](C)C1 | 0.035 | 0.016 | 24 | 0.278 | 0.019 | 0.157 | 0.84 | 3.5 | 59 | 1.5 | 16.9 | half-life [9]: 1.1 h; clearance [10]: 26 mL/min/kg; Vd [11]: 1.9 L/kg; AUC(0-t) at 24 h [12]: 0.789 µM·h
4 | COc1cc2ncnc(Nc3cccc(Cl)c3F)c2cc1OC(=O)N1CC[C@@H](N(C)C)C1 | 0.058 | 0.023 | – | 2.04 | 0.075 | 3 | 0.27 | 0.43 | 47 | 0.76 | 1.1 | –
5 | COc1cc2ncnc(Nc3cccc(Cl)c3F)c2cc1OC(=O)N1CCN(C)C2CC21 (stereo in doubt; 1j) | – | – | – | – | – | – | – | – | – | – | – | Fu [22]: 2.4%; Fu [23]: 1.8%; F [24]: 84%; AUC [25]: 0.727 µM·h; AUC [26]: 0.028 µM·h; AUC [27]: 0.74 µM·h; K(p,uu,brain) ([7]; brain): 0.74; K(p,uu,CSF) ([8]; csf): 1.6; beta t1/2 [28]: 1.3 h; Vdss [29]: 2.5 L/kg; AUC [30]: 2.315 µM·h; Papp ([13]; mdck-ii): 76 ×10⁻⁶ cm/s

Further lines, with some results ahead:

Row | fraction unbound at 5 µM [1] | fraction unbound at 5 µM [2] | bioavailability [3] [%] | AUC(0-t) at 7 h [4] [µM·h] | AUC(0-t) at 7 h [5] [µM·h] | AUC(0-t) at 7 h [6] [µM·h] | Kp uu [7] | Kp uu [8] | Papp A→B [13] [×10⁻⁶ cm/s] | efflux ratio [20] | SMILES | IC50 [21] [nM] | also measured
6 | 0.078 | 0.03 | 44 | 1.01 | 0.05 | 0.834 | 0.47 | 0.76 | 32 | 0.33 | COc1cc2ncnc(Nc3cccc(Cl)c3F)c2cc1CN1CCOCC1 | 6.6 | half-life [31]: 1.1 h; IC50 [32]: > 10000 nM; IC50 [33]: > 10000 nM; IC50 [34]: > 10000 nM; IC50 [35]: 17000 nM; CL/F [36]: 59 mL/min/kg; Vdss [37]: 2.8 L/kg; IC50 [38]: 3.8 nM
7 | 0.045 | 0.029 | – | – | – | – | – | – | 19 | 1.7 | C#Cc1cccc(Nc2ncnc3cc(OCCOC)c(OCCOC)cc23)c1 [ERLOTINIB] | – | Papp A→B [14]: 14 ×10⁻⁶ cm/s; Kp uu [15]: 0.11; Kp uu [16]: 0.29; Activity [39]: Active; Activity [40]: Toxic; Activity [41]: Active; efflux ratio [42]: 5.4
8 | 0.038 | 0.026 | – | 0.104 | 0.005 | 0.042 | 1.7 | 3.4 | 42 | 0.58 | COc1cc2ncnc(Nc3cccc(Cl)c3F)c2cc1OC(=O)N1CCOCC1 | 4.1 | –
